Laboratory results published in PubChem BioAssay (NCI).
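All cell lines were grown in 96-well plates and treated with compound for 48 hours. TGI: concentration producing complete growth inhibition.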

Key:
Experiment in all cases: growth of human tumour cells (NCI), 48 h
NCI-H460 lung = test system: NCI-H460 lung
HL-60(TB) leukemia = test system: HL-60(TB) leukemia
LOX IMVI melanoma = test system: LOX IMVI melanoma
COLO 205 colon = test system: COLO 205 colon
SNB-75 CNS = test system: SNB-75 CNS
A549 NSCLC = test system: A549 NSCLC
SF-295 CNS = test system: SF-295 CNS
HCT-15 colon = test system: HCT-15 colon
MALME-3M melanoma = test system: MALME-3M melanoma
SW-620 colon = test system: SW-620 colon
UACC-62 melanoma = test system: UACC-62 melanoma
ACHN renal = test system: ACHN renal
SF-539 CNS = test system: SF-539 CNS
M14 melanoma = test system: M14 melanoma
M19-MEL melanoma = test system: M19-MEL melanoma
UO-31 renal = test system: UO-31 renal
RXF 393 renal = test system: RXF 393 renal
NCI/ADR-RES ovarian = test system: NCI/ADR-RES ovarian
MDA-N = test system: MDA-N
OVCAR-5 ovarian = test system: OVCAR-5 ovarian

| SMILES | TGI (NCI-H460 lung) | TGI (HL-60(TB) leukemia) | TGI (LOX IMVI melanoma) | TGI (COLO 205 colon) | TGI (SNB-75 CNS) | TGI (A549 NSCLC) | TGI (SF-295 CNS) | TGI (HCT-15 colon) | TGI (MALME-3M melanoma) | TGI (SW-620 colon) | TGI (UACC-62 melanoma) | TGI (ACHN renal) | TGI (SF-539 CNS) | TGI (M14 melanoma) | TGI (M19-MEL melanoma) | TGI (UO-31 renal) | TGI (RXF 393 renal) | TGI (NCI/ADR-RES ovarian) | TGI (MDA-N) | TGI (OVCAR-5 ovarian) |
| --- | --- | --- | --- | --- | --- | --- | --- | --- | --- | --- | --- | --- | --- | --- | --- | --- | --- | --- | --- | --- |
| C/C(=N\NS(=O)(=O)c1ccc(C)cc1)c1cc2ccccc2n1C | > 100 µM | > 100 µM | > 100 µM | > 100 µM | > 100 µM | > 100 µM | > 100 µM | > 100 µM | > 100 µM | > 100 µM | > 100 µM | > 100 µM | > 100 µM | > 100 µM | > 100 µM | > 100 µM | – | – | – | – |
| O=c1c(C2=NCCC2)c(-c2ccc[nH]2)[nH]n1-c1ccccc1 | > 100 µM | > 100 µM | > 100 µM | > 100 µM | > 100 µM | > 100 µM | > 100 µM | > 100 µM | > 100 µM | > 100 µM | > 100 µM | > 100 µM | > 100 µM | > 100 µM | – | > 100 µM | > 100 µM | > 100 µM | > 100 µM | > 100 µM |
| COc1cc(OC)c2c(=O)c(OC)c(-c3ccc4c(c3)OCO4)oc2c1OC | > 100 µM | 40.4 µM | > 100 µM | > 100 µM | > 100 µM | > 100 µM | > 100 µM | > 100 µM | > 100 µM | > 100 µM | > 100 µM | > 100 µM | > 100 µM | > 100 µM | – | > 100 µM | > 100 µM | > 100 µM | > 100 µM | > 100 µM |
| COC(=O)N/N=C(\C(=O)Nc1cccc([N+](=O)[O-])c1)c1nc2ccc([N+](=O)[O-])cc2[nH]c1=O | > 100 µM | > 100 µM | > 100 µM | > 100 µM | > 100 µM | > 100 µM | > 100 µM | – | > 100 µM | > 100 µM | 58.5 µM | > 100 µM | > 100 µM | > 100 µM | > 100 µM | > 100 µM | > 100 µM | – | – | > 100 µM |
| O=C(NNCC(F)(F)F)c1ccncc1 | > 100 µM | > 100 µM | > 100 µM | > 100 µM | > 100 µM | > 100 µM | > 100 µM | > 100 µM | > 100 µM | > 100 µM | > 100 µM | > 100 µM | > 100 µM | > 100 µM | – | > 100 µM | > 100 µM | > 100 µM | > 100 µM | > 100 µM |
| CN(C)CCC(CCN(C)C)=NOC(=O)c1ccccc1 | > 100 µM | > 100 µM | – | > 100 µM | > 100 µM | > 100 µM | > 100 µM | > 100 µM | > 100 µM | > 100 µM | > 100 µM | > 100 µM | > 100 µM | > 100 µM | > 100 µM | > 100 µM | > 100 µM | – | – | – |
